Source: patent US20220324835A1 (Nurix Therapeutics, Inc., priority 2018, published 2022)

Legend:
[1] = molecular target: T1, Cbl-b (Homo sapiens, UniProt Q13191); experiment: Cbl-b inhibition assay (Cbl-b activity assay, FRET, Biological Example 1; 100 mM NaCl, 60 nM Src kinase); format: biochemical; conditions: upper bound stated in text lists; read-out: IC50 values in the Cbl-b inhibition assay of Biological Example 1
How it was run: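 FRET read-out: loss of signal marks inhibition. Mix = biotin-Avi-Cbl-b (N-term), Src kinase, UbcH5B-Ub(Bodipy-FL, irreversible conjugate), streptavidin-Tb, assay buffer.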

[2] = molecular target: T1, Cbl-b; experiment: Cbl-b activity assay (Cbl-b inhibition assay), TR-FRET of Cbl-b interaction with UbcH5B-Ub; format: biochemical; conditions: assay buffer with 100 mM NaCl, 60 nM Src kinase; read-out: Cbl-b activity IC50
How it was run: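 TR-FRET readout of Cbl-b binding to Bodipy-fluorescein N-terminally labeled Ub conjugated to UbcH5B C85K, measured with compound present. After compound incubation, 60 nM Src kinase with 1 mM ATP and 5 mM MgCl2 (final) was added for 1.5 h, then a further 1 h incubation; asterisked values used 50 mM NaCl buffer and 30 nM Src.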

T1 sequence (Q13191 36-427): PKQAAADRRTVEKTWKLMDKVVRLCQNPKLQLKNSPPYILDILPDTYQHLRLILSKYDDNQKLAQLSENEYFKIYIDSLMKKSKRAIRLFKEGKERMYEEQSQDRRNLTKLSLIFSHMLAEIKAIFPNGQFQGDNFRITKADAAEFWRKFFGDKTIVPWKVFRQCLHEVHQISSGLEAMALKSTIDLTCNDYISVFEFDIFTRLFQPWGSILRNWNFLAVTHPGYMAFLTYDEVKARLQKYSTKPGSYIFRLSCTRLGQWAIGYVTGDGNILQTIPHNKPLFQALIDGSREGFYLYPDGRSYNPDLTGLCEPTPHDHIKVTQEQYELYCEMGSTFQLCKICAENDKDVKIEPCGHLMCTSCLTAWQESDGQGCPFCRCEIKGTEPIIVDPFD

SMILES	IC50 [1] [nM]	IC50 [2] [nM]
Cn1cnnc1CC1(c2cccc(N3Cc4c(cc(CN5CCOC(C6CC6)C5)cc4C(F)(F)F)C3=O)c2)COC1 (stereo not drawn) [Example 718, 6-[(2-cyclopropylmorpholin-4-yl)methyl]-2-(3-{3-[(4-methyl-1,2,4-triazol-3-yl)methyl]oxetan-3-yl}phenyl)-4-(trifluoromethyl)-3H-isoindol-1-one]	≤ 100	< 100
Cn1cnnc1CC1(c2cccc(N3Cc4c(cc(CN5CC[C@@H](F)[C@@H](F)C5)cc4C(F)(F)F)C3=O)c2)COC1 (relative stereo) [Example 634, 6-((cis-3,4-difluoropiperidin-1-yl)methyl)-2-(3-(3-((4-methyl-4H-1,2,4-triazol-3-yl)methyl)oxetan-3-yl)phenyl)-4-(trifluoromethyl)isoindolin-1-one]	≤ 100	< 100
Cc1cnnn1CC(C)c1cccc(NC(=O)c2cccc(C(F)(F)F)n2)c1 (stereo not drawn) [Compound 218, N-[3-[1-methyl-2-(5-methyltriazol-1-yl)ethyl]phenyl]-6-(trifluoromethyl)pyridine-2-carboxamide]	≤ 500	301 to 1000
C[C@H](Cc1nncn1C)c1cccc(NC(=O)c2cc(C(=O)N3CCC4(CCO4)C3)ccn2)c1 (stereo partly drawn) [Compound 237, N-[3-[(2R)-1-(4-methyl-4H-1,2,4-triazol-3-yl)propan-2-yl]phenyl]-4-[1-oxa-6-azaspiro[3.4]octane-6-carbonyl]pyridine-2-carboxamide]	≤ 10000	3000 to 10000
Cc1conc1C[C@H](C)c1cccc(NC(=O)c2ccnc(C(F)(F)F)n2)c1 [Compound 213b, (S)-N-(3-(1-(4-methylisoxazol-3-yl)propan-2-yl)phenyl)-2-(trifluoromethyl)pyrimidine-4-carboxamide]	≤ 10000	3000 to 10000
C[C@H](Cc1nncn1C)c1cccc(NC(=O)c2cc(C(=O)N3CC(CO)C3)ccn2)c1 [Compound 232, 4-[3-(hydroxymethyl)azetidine-1-carbonyl]-N-[3-[(2R)-1-(4-methyl-4H-1,2,4-triazol-3-yl)propan-2-yl]phenyl]pyridine-2-carboxamide]	≤ 10000	1000 to 3000
COC[C@@H]1CN(Cc2cc3c(c(C(F)(F)F)c2)CN(c2cccc(C4(Cc5nncn5C)COC4)c2)C3=O)CCO1 [Example 667, (S)-6-((2-(methoxymethyl)morpholino)methyl)-2-(3-(3-((4-methyl-4H-1,2,4-triazol-3-yl)methyl)oxetan-3-yl)phenyl)-4-(trifluoromethyl)isoindolin-1-one]	≤ 100	< 100
Cn1cnnc1CC1(c2cccc(N3Cc4c(cc(CN5CCO[C@H](CO)C5)cc4C(F)(F)F)C3=O)c2)COC1 [Example 710, (S)-6-((2-(hydroxymethyl)morpholino)methyl)-2-(3-(3-((4-methyl-4H-1,2,4-triazol-3-yl)methyl)oxetan-3-yl)phenyl)-4-(trifluoromethyl)isoindolin-1-one]	≤ 100	< 100
CC(Sc1nncn1C)c1ccc(OC(F)(F)F)c(NC(=O)c2cccc(C(F)(F)F)n2)c1 (stereo not drawn) [Compound 94, N-(5-(1-((4-methyl-4H-1,2,4-triazol-3-yl)thio)ethyl)-2-(trifluoromethoxy)phenyl)-6-(trifluoromethyl)picolinamide]	≤ 10000	1000 to 3000
Cn1cnnc1CC1(c2cccc(N3Cc4c(cc(CN5CCC(F)CC5)cc4C4CC4)C3=O)c2)COC1 [Example 552, 4-cyclopropyl-6-((4-fluoropiperidin-1-yl)methyl)-2-(3-(3-((4-methyl-4H-1,2,4-triazol-3-yl)methyl)oxetan-3-yl)phenyl)isoindolin-1-one]	≤ 100	< 100
COC(Cc1nncn1C)c1cccc(N2Cc3c(cccc3C(F)(F)F)C2=O)c1 (stereo not drawn) [Compound 290, 2-(3-(1-methoxy-2-(4-methyl-4H-1,2,4-triazol-3-yl)ethyl)phenyl)-4-(trifluoromethyl)isoindolin-1-one]	≤ 10000	1000 to 3000
Cn1cnnc1CC1(c2cccc(N3Cc4c(cc(CN5CCOC6(CC6)C5)cc4C(F)(F)F)C3=O)c2)COC1 [Example 666, 6-((4-oxa-7-azaspiro[2.5]octan-7-yl)methyl)-2-(3-(3-((4-methyl-4H-1,2,4-triazol-3-yl)methyl)oxetan-3-yl)phenyl)-4-(trifluoromethyl)isoindolin-1-one]	≤ 100	< 100
Cn1cnnc1CC1(c2cccc(N3Cc4c(cc(CN5CCc6cc(C#N)ccc6C5)cc4C(F)(F)F)C3=O)c2)COC1 [Example 706, 2-((2-(3-(3-((4-methyl-4H-1,2,4-triazol-3-yl)methyl)oxetan-3-yl)phenyl)-3-oxo-7-(trifluoromethyl)isoindolin-5-yl)methyl)-1,2,3,4-tetrahydroisoquinoline-6-carbonitrile]	≤ 100	< 100
Cn1cnnc1CC1(c2cccc(N3Cc4c(cc(CN5CC[C@@H](c6ccccc6)C5)cc4C(F)(F)F)C3=O)c2)COC1 [Example 662b, (S)-2-(3-(3-((4-methyl-4H-1,2,4-triazol-3-yl)methyl)oxetan-3-yl)phenyl)-6-((3-phenylpyrrolidin-1-yl)methyl)-4-(trifluoromethyl)isoindolin-1-one]	≤ 100	< 100
CC(Sc1nncn1C)c1cncc(NC(=O)c2cccc(C(F)(F)F)n2)c1 (stereo not drawn) [Compound 127, N-[5-[1-[(4-methyl-1,2,4-triazol-3-yl)sulfanyl]ethyl]-3-pyridyl]-6-(trifluoromethyl)pyridine-2-carboxamide]	≤ 10000	3000 to 10000
Cn1cnnc1CC1(c2cccc(N3Cc4c(cc(CN5CCOC(C6CCC6)C5)cc4C(F)(F)F)C3=O)c2)COC1 (stereo not drawn) [Example 719, 6-[(2-cyclobutylmorpholin-4-yl)methyl]-2-(3-{3-[(4-methyl-1,2,4-triazol-3-yl)methyl]oxetan-3-yl}phenyl)-4-(trifluoromethyl)-3H-isoindol-1-one]	≤ 100	< 100
Cc1ccc(C(=O)Nc2cccc([C@H](C)[C@H](O)c3nncn3C)c2)nc1C1CC1 [Compound 288, Trans-6-cyclopropyl-N-(3-(1-hydroxy-1-(4-methyl-4H-1,2,4-triazol-3-yl)propan-2-yl)phenyl)-5-methylpicolinamide]	≤ 10000	3000 to 10000
CC(Cc1nocc1CO)c1cccc(N2Cc3c(cccc3C(F)(F)F)C2=O)c1 (stereo not drawn) [Compound 269, 2-(3-(1-(4-(hydroxymethyl)isoxazol-3-yl)propan-2-yl)phenyl)-4-(trifluoromethyl)isoindolin-1-one]	≤ 10000	1000 to 3000
C[C@H](Sc1nncn1C)c1cccc(NC(=O)c2cc3ccccc3c(C(F)(F)F)n2)c1 [Compound 63, (S)-N-(3-(1-((4-methyl-4H-1,2,4-triazol-3-yl)thio)ethyl)phenyl)-1-(trifluoromethyl)isoquinoline-3-carboxamide]	≤ 10000	3000 to 10000
CC(c1cc2c(c(C(F)(F)F)c1)CN(c1cccc(C3(C(F)(F)c4nncn4C)COC3)c1)C2=O)N1CC[C@H](F)C1 (stereo partly drawn) [Example 678, 2-(3-(3-(difluoro(4-methyl-4H-1,2,4-triazol-3-yl)methyl)oxetan-3-yl)phenyl)-6-(l-((S)-3-fluoropyrrolidin-1-yl)ethyl)-4-(trifluoromethyl)isoindolin-1-one]	≤ 100	< 100
Cn1cnnc1CC1(c2cccc(N3Cc4c(cc(C5CCCOC5)cc4C(F)(F)F)C3=O)c2)COC1 (stereo not drawn) [Example 615, 2-(3-(3-((4-methyl-4H-1,2,4-triazol-3-yl)methyl)oxetan-3-yl)phenyl)-6-(tetrahydro-2H-pyran-3-yl)-4-(trifluoromethyl)isoindolin-1-one]	≤ 100	< 100
Cn1cnnc1CC1(c2cccc(N3Cc4c(cc(CN5Cc6cccc(Cl)c6C5)cc4C(F)(F)F)C3=O)c2)COC1 [Example 657, 6-((4-chloroisoindolin-2-yl)methyl)-2-(3-(3-((4-methyl-4H-1,2,4-triazol-3-yl)methyl)oxetan-3-yl)phenyl)-4-(trifluoromethyl)isoindolin-1-one]	≤ 100	< 100
Cc1cc(C(=O)Nc2cccc(C3(Cc4nncn4C)COC3)c2)n2nc(C)cc2n1 [Example 597, 2,5-dimethyl-N-(3-(3-((4-methyl-4H-1,2,4-triazol-3-yl)methyl)oxetan-3-yl)phenyl)pyrazolo[1,5-a]pyrimidine-7-carboxamide]	≤ 300	100 to 300
C[C@H](Sc1nncn1C)c1cccc(NC(=O)c2cc(C(=O)N3CCC(S(C)(=O)=O)C3)ccn2)c1 (stereo partly drawn) [Compound 158, N-(3-((A)-1-((4-methyl-4H-1,2,4-triazol-3-yl)thio)ethyl)phenyl)-4-(3-(methylsulfonyl)pyrrolidine-1-carbonyl)picolinamide]	≤ 10000	3000 to 10000
Cc1cc(C(=O)Nc2cccc(C3(Cc4[nH]ncc4C)COC3)c2)nc(C2CC2)n1 [Compound 510, 2-cyclopropyl-6-methyl-N-(3-{3-[(4-methyl-1H-pyrazol-3-yl)methyl]oxetan-3-yl}phenyl)pyrimidine-4-carboxamide]	≤ 100	< 100
Cc1nnnn1CC(C)c1cccc(NC(=O)c2cccc(C(F)(F)F)n2)c1 (stereo not drawn) [Compound 217, N-[3-[1-methyl-2-(5-methyltetrazol-1-yl)ethyl]phenyl]-6-(trifluoromethyl)pyridine-2-carboxamide]	≤ 10000	> 10000
C[C@H](Sc1nncn1C)c1cccc(NC(=O)c2cccc(N(C)C)c2)c1 [Compound 26, (S)-3-(Dimethylamino)-N-(3-(1-((4-methyl-4H-1,2,4-triazol-3-yl)thio)ethyl)phenyl)benzamide]	≤ 10000	> 10000
